Results from article PMC3187750, “Functional Analysis of the Cytoskeleton Protein MreB from Chlamydophila pneumoniae” (PLoS ONE, 2011).

How the values were obtained:
[1] = biological target: T1, MreB from C. pneumoniae (chlamydial MreB) (Chlamydia pneumoniae, UniProt A0ABN3YSA6); conditions: 5 µM MreB, 200 µM ATP; polymerizing (5 mM MgCl2, pH 7) and monomeric (no MgCl2, pH 8) conditions
T1 sequence (A0ABN3YSA6 2-366): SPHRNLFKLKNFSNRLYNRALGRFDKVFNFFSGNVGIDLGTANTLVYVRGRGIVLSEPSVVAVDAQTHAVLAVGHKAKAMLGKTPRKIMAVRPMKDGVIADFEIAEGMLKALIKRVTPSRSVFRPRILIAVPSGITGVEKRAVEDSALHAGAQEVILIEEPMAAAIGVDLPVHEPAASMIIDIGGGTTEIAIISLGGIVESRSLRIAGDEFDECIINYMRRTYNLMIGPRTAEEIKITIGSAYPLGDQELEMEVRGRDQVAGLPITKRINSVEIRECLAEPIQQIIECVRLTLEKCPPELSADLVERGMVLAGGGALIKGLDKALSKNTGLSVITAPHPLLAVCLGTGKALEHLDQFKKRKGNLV

[2] = biological target: T1, MreB from C. pneumoniae (chlamydial MreB); assay: light scattering polymerization assay; assay type: biochemical; set-up: pET-21b, EcoRI/XhoI, C-terminal His6 tag kept; expressed in E. coli BL21(DE3); Ni-NTA purified; conditions: standard polymerization conditions (5 µM MreB, 5 mM MgCl2, pH 7, 20 °C)

## Nc1ncnc2c1ncn2[C@@H]1O[C@H](COP(=O)(O)OP(=O)(O)OP(=O)(O)O)[C@@H](O)[C@H]1O [ATP]
[1]
  phosphate release, molybdate-malachite green assay: The C345A mutant and wild-type MreB proteins hydrolyzed ATP without marked differences

## Nc1nc2c(ncn2[C@@H]2O[C@H](COP(=O)(O)OP(=O)(O)OP(=O)(O)O)[C@@H](O)[C@H]2O)c(=O)[nH]1 [GTP]
[2]
  light scattering polymerization assay: In the presence of GTP, the kinetics and extent of wild-type MreB polymerization was impaired
